# Source: patent US8877719B2, “Pest controlling composition” (Sumitomo Chemical Company, Limited, priority 2009, dated 2014)
# Assays:
# Assay type in all cases: in vivo
# [1] = system: Spodoptera litura third-instar larvae; test: Test Example 2: cabbage leaf immersion test, insecticidal ratio on Spodoptera litura third-instar larvae (spinetoram / spiromesifen); conditions: cabbage leaf immersed 60 seconds, four days after
# Experimental: (§1) A flowable formulation containing 11.7 wt % of spinetoram (spinetoram J:spinetoram L=75:25 (weight ratio)) was diluted with water containing 0.02 vol % of a spreading agent (trade name: Sindain, manufactured by Sumitomo Chemical Co., Ltd.) so as to obtain a given concentration.
# (§2) A flowable formulation containing 22.9 wt % of spiromesifen (trade name: CLEAZAR, manufactured by Bayer CropScience) was diluted with water containing 0.02 vol % of a spreading agent (trade name: Sindain, manufactured by Sumitomo Chemical Co., Ltd.) so as to obtain a given concentration.
# The spinetoram water-diluted solution and spiromesifen water-diluted solution were mixed to prepare a test drug solution.
# (§3) Cabbage was planted in a pot having a capacity of 860 ml and allowed to grow to 4-leaves stage. Leaves of the cabbage were cut one by one. One of the cabbage leaves was immersed in a test drug solution for 60 seconds. The cabbage leaf was air-dried, then, the cabbage leaf was placed in a cup having a capacity of 500 ml containing filter paper laid therein. Ten Spodoptera litura third-instar larvae were released in this cup. Four days after, life-or-death of the tested insects was observed. From the observed results, the insecticidal ratio was calculated in the same manner as in Test Example 1. The test was repeated three times.
# [2] = system: Tetranychus urticae female adult insects; test: Test Example 3: kidney bean leaf piece spray test, insecticidal ratio on Tetranychus urticae female adults; conditions: sprayed on kidney bean leaf pieces, three days after
# Experimental: as §1
# (§4) A flowable formulation containing 22.4 wt % of spirotetramat (trade name: Movento, manufactured by Bayer CropScience) was diluted with water containing 0.02 vol % of a spreading agent (trade name: Sindain, manufactured by Sumitomo Chemical Co., Ltd.) so as to obtain a given concentration.
# as §2
# These water-diluted solutions were mixed to prepare a test drug solution.
# A kidney bean leaf piece having a diameter of about 2 cm was inoculated with 10 Tetranychus urticae female adult insects. Then, the test drug solution was sprayed in an amount of 0.3 ml per two pieces of the kidney bean leaves. Three days after, life-or-death of the female adult insects was observed. From the observed results, the insecticidal ratio was calculated in the same manner as in Test Example 1. The test was repeated three times.
# [3] = system: Spodoptera litura third-instar larvae; test: Test Example 1: cabbage leaf immersion test, insecticidal ratio on Spodoptera litura third-instar larvae (spinetoram / spirotetramat); conditions: cabbage leaf immersed 60 seconds, four days after
# Experimental: as §1, §4
# The spinetoram water-diluted solution and spirotetramat water-diluted solution were mixed to prepare a test drug solution.
# as §3, with “The results were corrected by” for “From”, “following formula, thereby calculating” for “observed results, the”, “ratio.” for “ratio was calculated in the same manner as in Test Example 1.”, “times. Insecticidal ratio (%)=100×(Mt−Mc)/(100−Mc)” for “times.”
# Mt: insect death ratio (%) in test compound-treated area
# Mc: insect death ratio (%) in test compound-non-treated area
molecule,measurement,setting,value
"Cc1cc(C)c(C2=C(OC(=O)CC(C)(C)C)C3(CCCC3)OC2=O)c(C)c1 [spiromesifen, 2-oxo-3-(2,4,6-trimethylphenyl)-1-oxaspiro[4,4]nona-3-en-4-yl 3,3-dimethylbutanoate]",Insecticidal ratio (%),[1]; 112 ppm,3.4%
same,Insecticidal ratio (%),[2]; 3.2 ppm,28.0%
"CCOC(=O)OC1=C(c2cc(C)ccc2C)C(=O)N[C@]12CC[C@@H](OC)CC2 [spirotetramat, cis-4-(ethoxycarbonyloxy)-8-methoxy-3-(2,5-xylyl)-1-azaspiro[4,5]dec-3-en-2-one]",Insecticidal ratio (%),[2]; 0.8 ppm,0%
same,Insecticidal ratio (%),[3]; 56 ppm,10.3%
same,Insecticidal ratio (%),[3]; 112 ppm,20.7%
spinetoram,Insecticidal ratio (%),[1]; 0.73 ppm,6.9%
same,Insecticidal ratio (%),[2]; 12.5 ppm,28.4%
same,Insecticidal ratio (%),[3]; 0.73 ppm,17.2%
